The results in this text go back to PubChem BioAssay (NCI).

Among the test systems are SN12C renal; UACC-62 melanoma; CAKI-1 renal; SW-620 colon; NCI-H23 lung; M14 melanoma; SNB-75 CNS; UACC-257 melanoma; SK-MEL-5 melanoma; OVCAR-5 ovarian.
Holding throughout (test): NCI-60 cell line screen, 48 h

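Step 1: Grow cells in 96-well plates. Step 2: Expose to compound for 48 hours at 5 concentrations. Step 3: Interpolate endpoints linearly; if unreached, use highest concentration. GI50 marks 50% less growth. The concentration for full growth arrest is given as TGI.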

For the compound `C[C-](O)O.O/C(=C\[C-](O)c1ccccc1)c1ccccc1.O/C(=C\[C-](O)c1ccccc1)c1ccccc1.[Nd+3]` (centres undefined), the GI50 in the assay on SN12C renal was 5.99 µM; in the assay with UACC-62 melanoma it was 6.56 µM; with CAKI-1 renal it was 11.9 µM; in the assay on SW-620 colon, 6.94 µM; in the assay on NCI-H23 lung, 4.69 µM; with M14 melanoma, 14.6 µM. For the same compound, the GI50 in the assay on SNB-75 CNS was 1.77 µM; in the assay on UACC-257 melanoma it was 15.5 µM; with SK-MEL-5 melanoma, 5.22 µM; in the assay on OVCAR-5 ovarian, 12.6 µM. For the same compound, the TGI in the assay with UACC-62 melanoma was 45.3 µM; in the assay with CAKI-1 renal, 42.2 µM; in the assay on SW-620 colon, more than 100 µM; in the assay with NCI-H23 lung, 29.4 µM; in the assay with M14 melanoma, 33.8 µM; with SNB-75 CNS it was 6.35 µM. Also, the TGI in the assay with UACC-257 melanoma was determined as 42.3 µM; in the assay with SK-MEL-5 melanoma, 18 µM; in the assay with OVCAR-5 ovarian, 33.1 µM.

Consider `O=C1CC(=O)OC(c2ccc([N+](=O)[O-])cc2)O1`, for which the GI50 was 1.94 µM in the assay with SN12C renal; 2.14 µM with UACC-62 melanoma; 1.44 µM in the assay on CAKI-1 renal; 1.68 µM with SW-620 colon; 2.15 µM in the assay with NCI-H23 lung; 1.97 µM in the assay with M14 melanoma. In addition, the GI50 was 1.44 µM in the assay on SNB-75 CNS, 1.66 µM in the assay on UACC-257 melanoma, 1.72 µM in the assay with SK-MEL-5 melanoma and 2.04 µM with OVCAR-5 ovarian. The TGI in the assay on SN12C renal came to 4.23 µM; in the assay with UACC-62 melanoma it was 5.54 µM; in the assay with CAKI-1 renal, 3.24 µM; in the assay on SW-620 colon it was 3.41 µM; in the assay on NCI-H23 lung it was 5.2 µM; in the assay with M14 melanoma, 4 µM. In addition, the TGI in the assay on SNB-75 CNS amounted to 3.12 µM; with UACC-257 melanoma it was 3.36 µM; with SK-MEL-5 melanoma, 3.39 µM; with OVCAR-5 ovarian, 4.93 µM.

Turning to `O=C1c2ccccc2-n2c1nc1ccccc1c2=O`, the TGI in the assay on SN12C renal was more than 68.8 µM; in the assay on UACC-62 melanoma, 14.5 µM; in the assay on CAKI-1 renal, 42.3 µM; in the assay with SW-620 colon it was 70.1 µM; in the assay on NCI-H23 lung it was 33.8 µM; with M14 melanoma it was 11.1 µM. Further, the TGI in the assay with SNB-75 CNS turned out to be 83.8 µM; in the assay on UACC-257 melanoma, 9.65 µM; in the assay with SK-MEL-5 melanoma, 26 µM; in the assay on OVCAR-5 ovarian, 29.9 µM.
